# Reference: patent US7202069B2, “(R)-2-octanol dehydrogenases, methods for producing the enzymes, DNA encoding the enzymes, and methods for producing alcohols using the enzymes” (Daicel Chemical Industries, Ltd., priority 2000, dated 2007)
# Read-outs that look alike come from different tables or passages of the source.
# B1: (R)-2-octanol dehydrogenase from Pichia finlandica: NAD+-dependent (R)-2-octanol dehydrogenase purified from Pichia finlandica DSM 70280; amino acid sequence SEQ ID NO:2 (protein, listed as Pichia finlandica)
# chain: MSYNFHNKVAVVTGALSGIGLSVAKKFLQLGAKVTISDVSGEKKYHETVVALKAQNLNTDNLHYVQADSSKEEDNKKLISETLATFGGLDIVCANAGIGKFAPTHETPFDVWKKVIAVNLNGVFLLDKLAINYWLEKSKPGVIVNMGSVHSFVAAPGLAHYGAAKGGVKLLTQTLALEYASHGIRVNSVNPGYISTPLIDEVPKERLDKLVSLHPIGRLGRPEEVADAVAFLCSQEATFINGVSLPVDGGYTAQ
# Key:
# [1] = tested on: (R)-2-octanol dehydrogenase; assay: Oxidation activity of (R)-2-octanol dehydrogenase on various alcohols, NAD+ as coenzyme; assay type: biochemical, Pichia finlandica; details: oxidation activity of (R)-2-octanol taken as 100
# Experimental: (§1) On the other hand, oxidation activity on (R)-2-octanol can be measured as follows. The activity can be validated by incubating at 30° C. the reaction mixture containing Tris-HCl buffer (pH 8.5, 50 mM), 2.5 mM NAD^+, 5 mM (R)-2-octanol, and the enzyme and by measuring increase of absorbance at 340 nm accompanying generation of NADH. 1 U was defined as the amount of the enzyme catalyzing generation of 1 μmol of NADH for 1 minute.
# The (R)-2-octanol dehydrogenase was reacted with various alcohols and its oxidation activity was measured.
# [2] = tested on: (R)-2-octanol dehydrogenase; assay: Residual (R)-2-octanol dehydrogenase activity after treatment with reagents; assay type: biochemical, Pichia finlandica
# Experimental: The (R)-2-octanol dehydrogenase was treated with various reagents at 30° C. for 30 minutes and the (R)-2-octanol dehydrogenase activity was measured.
# [3] = tested on: (R)-2-octanol dehydrogenase; assay: Oxidation activity of (R)-2-octanol dehydrogenase on various alcohols, NAD+ as coenzyme; assay type: biochemical, Candida utilis; details: oxidation activity of (R)-2-octanol taken as 100
# Experimental: as §1
# The (R)-2-octanol dehydrogenase was reacted with various alcohols and its oxidation activity was measured. […] As a result, the relative activity was 6.7% for (S)-2-octanol, 8.3% for 2-propanol, and 86% for (R)-1-phenylethanol.
# [4] = tested on: (R)-2-octanol dehydrogenase; assay: Activation of (R)-2-octanol dehydrogenase by reagents; assay type: biochemical, Pichia finlandica; details: for Relative activity: reagent 1 mM, activity without reagents = 100
# Experimental: The activation effect of (R)-2-octanol dehydrogenase in various reagents was measured.
# [5] = tested on: (R)-2-octanol dehydrogenase; assay: Reduction activity of the enzyme of Example 3 on various ketones, NADH as coenzyme; assay type: biochemical, Pichia finlandica
# Experimental: (§2) In the present invention, reduction activity on 4-chloroacetoacetic acid ester can be measured as follows. The activity can be validated by incubating at 30° C. the reaction mixture containing potassium phosphate buffer (pH 6.5, 100 mM), 0.2 mM NADH, 20 mM ethyl 4-chloroacetoacetate, and the enzyme and by measuring decrease of absorbance at 340 nm accompanying decrease of NADH. 1 U was defined as the amount of the enzyme catalyzing decrease of 1 μmol of NADH for 1 minute. Quantification of proteins can be done by dye binding method using the protein assay kit (BIORAD).
# The enzyme of Example 3 was reacted with various ketones and its reduction activity was measured.
# [6] = tested on: (R)-2-octanol dehydrogenase; assay: Reduction activity of the enzyme of Example 35 on various ketones, NADH as coenzyme; assay type: biochemical, Candida utilis
# Experimental: as §2
# The enzyme of Example 35 was also reacted with various ketones and its reduction activity was measured. […] As a result, the relative activity was 26.6% for 2-octanone and 25.3% for acetophenone.
# [7] = (R)-2-octanol oxidation activity of the purified enzyme (specific activity, optimum pH, optimum temperature); assay type: biochemical, Pichia finlandica; details: after Superdex 200 gel filtration
# Experimental: as §1
# The highest specific activity of the purified enzyme was about 91 U/mg-protein which is the activity of oxidizing (R)-2-octanol.
# We examined (R)-2-octanol dehydrogenase activity of the enzyme obtained from Example 3 changing pH by using phosphate buffer (KPB), Tris-HCl buffer, Glycine buffer. […] As a result, the optimum pH of the enzyme was from 8.0 to 11.0.
# We examined (R)-2-octanol oxidation activity of the enzyme obtained from Example 3 changing only temperature in the standard reaction conditions. […] As a result, the optimum temperature of the enzyme was from 45 to 55.
# [8] = reagent 1 mM, 30° C. for 30 minutes, enzyme treated without reagents = 100
# [9] = reduction activity of 4-chloroacetoacetic acid ethyl ester taken as 100, NADH as coenzyme
# [10] = 4-chloroacetoacetic acid ethyl ester taken as 100, NADH
# [11] = reagent 0.01 mM, 30° C. for 30 minutes, enzyme treated without reagents = 100
# [12] = treated at 30° C. for 30 minutes
molecule,measurement,setting,value
CC(O)COc1ccccc1 (stereo not drawn) [1-Phenoxy-2-propanol],"relative activity, oxidation reaction",[1]; NAD+ as coenzyme,15.5
O.O.O.O.O.O.[Cl-].[Cl-].[Co+2] [CoCl2Ñ6H2O],Residual activity,[2]; [8],99%
CCCCCC[C@@H](C)O [(R)-2-octanol],"relative activity, oxidation reaction",[3]; NAD+ as coenzyme,100
same,"relative activity, oxidation reaction",[1]; NAD+ as coenzyme,100
[Zn+2] [zinc],"activation of the enzyme, in words",[4],activated
CCOC(=O)CC(=O)CCl [Ethyl 4-chloroacetoacetate],"relative activity, reduction reaction",[5]; [9],100
same,"relative activity, reduction reaction",[6]; [9],100
CCCCCCC(C)=O [2-Octanone],"relative activity, reduction reaction",[5]; [10],31.2%
same,"relative activity, reduction reaction",[5]; [9],31.2
same,"relative activity, reduction reaction",[6]; [10],26.6%
same,"relative activity, reduction reaction",[6]; [9],26.6
CCCCCCC(C)O (stereo not drawn) [2-Octanol],"relative activity, oxidation reaction",[3]; NAD+ as coenzyme,8.3
same,"relative activity, oxidation reaction",[1]; NAD+ as coenzyme,77.8
[Mg] [magnesium],"activation of the enzyme, in words",[4],activated
CCOC(=O)CC(C)=O [Ethyl acetoacetate],"relative activity, reduction reaction",[5]; [9],106
O.O.O.O.O.O.[Cl][Ni][Cl] [NiCl2Ñ6H2O],Residual activity,[2]; [8],103%
MnSO4Ñ4-5H2O,Relative activity,[4],121%
O[C@H](CS)[C@H](O)CS (racemic) [Dithiothreitol],Residual activity,[2]; [8],123%
"[Ca+2].[Cl-].[Cl-] [CaCl2Ñ2H2O, calcium chloride]",Residual activity,[2],174%
same,"effect of reagent on the enzyme (inhibition / stabilization), in words",[2],stabilized
CCOC(=O)C[C@@H](O)CCl [Ethyl (R)-4-chloro-3-hydroxybutyrate],"relative activity, oxidation reaction",[1]; NAD+ as coenzyme,0.172
[Cl-].[K+] [KCl],Residual activity,[2]; [8],106%
Cl.NO [NH2OHÑHCl],Residual activity,[2]; [11],99%
CC(=O)COc1ccccc1 [1-Phenoxy-2-propanone],"relative activity, reduction reaction",[5]; [9],54.2
"O=C([O-])CN(CCN(CC(=O)[O-])CC(=O)O)CC(=O)O.[Na+].[Na+] [EDTAÑ2Na, ethylenediaminetetraacetic acid 2Na]",Residual activity,[2]; [8],81%
same,"effect of reagent on the enzyme (inhibition / stabilization), in words",[2]; [12],slightly inhibited
CCC=O [Propionaldehyde],"relative activity, reduction reaction",[5]; [9],18.4
CCOC(=O)C[C@H](O)CCl [Ethyl (S)-4-chloro-3-hydroxybutyrate],"relative activity, oxidation reaction",[1]; NAD+ as coenzyme,2.24
"[Cl-].[Cl-].[Mg+2] [MgCl2Ñ6H2O, magnesium chloride]",Relative activity,[4],122%
same,Residual activity,[2],185%
same,"effect of reagent on the enzyme (inhibition / stabilization), in words",[2],stabilized
CCN1C(=O)C=CC1=O [N-ethylmaleimide],Residual activity,[2]; [8],147%
same,"effect of reagent on the enzyme (inhibition / stabilization), in words",[2]; [12],stabilized
O.O.O.O.O.O.O.O=S(=O)([O-])[O-].[Zn+2] [ZnSO4Ñ7H2O],Relative activity,[4],110%
CCC(C)=O [2-Butanone],"relative activity, reduction reaction",[5]; [9],7.99
manganese chloride [MnCl2Ñ4H2O],Relative activity,[4],114%
same,Residual activity,[2]; [8],185%
same,"effect of reagent on the enzyme (inhibition / stabilization), in words",[2]; [12],stabilized
(S)-2-butanol,"relative activity, oxidation reaction",[1]; NAD+ as coenzyme,7.31
c1cnc2c(c1)ccc1cccnc12 [o-Phenanthroline],Residual activity,[2]; [8],162%
same,"effect of reagent on the enzyme (inhibition / stabilization), in words",[2]; [12],stabilized
C[C@@H](O)c1ccccc1 [(R)-1-phenylethanol],"relative activity, oxidation reaction",[3]; NAD+,86%
same,"relative activity, oxidation reaction",[3]; NAD+ as coenzyme,86.7
same,"relative activity, oxidation reaction",[1]; NAD+,255%
same,"relative activity, oxidation reaction",[1]; NAD+ as coenzyme,255
[Mn+2] [manganese],"activation of the enzyme, in words",[4],activated
CC(C)O [2-Propanol],"relative activity, oxidation reaction",[3]; NAD+,8.3%
same,"relative activity, oxidation reaction",[1]; NAD+,6.8%
same,"relative activity, oxidation reaction",[1]; NAD+ as coenzyme,6.79
CCCCC(C)O (stereo not drawn) [2-Hexanol],"relative activity, oxidation reaction",[1]; NAD+ as coenzyme,54.1
O=c1c(O)c(-c2ccc(O)c(O)c2)oc2cc(O)cc(O)c12 [Quercetin],Residual activity,"[2]; reagent 0.1 mM, 30° C. for 30 minutes, enzyme treated without reagents = 100",99%
CCO [Ethanol],"relative activity, oxidation reaction",[1]; NAD+ as coenzyme,0.688
O=S(=O)(F)Cc1ccccc1 [Phenylmethylsulfonyl fluoride],Residual activity,[2]; [8],111%
"C[C@H](O)CCO [(S)-1,3-butanediol]","relative activity, oxidation reaction",[1]; NAD+ as coenzyme,0.516
"[Cl][Hg][Cl] [HgCl2, mercury chloride]",Residual activity,[2]; [11],62%
same,"effect of reagent on the enzyme (inhibition / stabilization), in words",[2]; [12],slightly inhibited
CCCCCC[C@H](C)O [(S)-2-octanol],"relative activity, oxidation reaction",[3]; NAD+,6.7%
same,"relative activity, oxidation reaction",[3]; NAD+ as coenzyme,6.7
same,"relative activity, oxidation reaction",[1]; NAD+,4.7%
same,"relative activity, oxidation reaction",[1]; NAD+ as coenzyme,4.73
CCOC(=O)C[C@H](C)O [Ethyl (S)-3-hydroxybutyrate],"relative activity, oxidation reaction",[1]; NAD+ as coenzyme,1.03
OC1CCCCC1 [Cyclohexanol],"relative activity, oxidation reaction",[1]; NAD+ as coenzyme,0.172
CC(=O)CCO [4-Hydroxy-2-butanone],"relative activity, reduction reaction",[5]; [9],0.691
CCCCCCCCO [1-Octanol],"relative activity, oxidation reaction",[1]; NAD+ as coenzyme,1.72
O.O.[Ba+2].[Cl-].[Cl-] [BaCl2Ñ2H2O],Residual activity,[2]; [8],102%
"C[C@@H](O)CCO [(R)-1,3-butanediol]","relative activity, oxidation reaction",[1]; NAD+ as coenzyme,1.29
[Cl][Fe][Cl] [FeCl2],Residual activity,[2]; [8],93%
O=S(=O)(O)O [sulphate ion],"activation of the enzyme, in words",[4],activated
C[C@H](O)c1ccccc1 [(S)-1-phenylethanol],"relative activity, oxidation reaction",[3]; NAD+ as coenzyme,6.7
same,"relative activity, oxidation reaction",[1]; NAD+ as coenzyme,1.81
CC(C)=O [Acetone],"relative activity, reduction reaction",[5]; [9],1.82
"OCC[C@@H](O)c1ccccc1 [(R)-1-phenyl-1,3-propanediol]","relative activity, oxidation reaction",[1]; NAD+ as coenzyme,0.344
[Cl-].[Cl-].[Zn+2] [ZnCl2],Relative activity,[4],105%
same,Residual activity,[2]; [8],96%
CCOC(=O)C[C@@H](C)O [Ethyl (R)-3-hydroxybutyrate],"relative activity, oxidation reaction",[1]; NAD+ as coenzyme,41.1
"OCC[C@H](O)c1ccccc1 [(S)-1-phenyl-1,3-propanediol]","relative activity, oxidation reaction",[1]; NAD+ as coenzyme,0.258
CC(=O)c1ccccc1 [Acetophenone],"relative activity, reduction reaction",[5]; [10],45%
same,"relative activity, reduction reaction",[5]; [9],45.3
same,"relative activity, reduction reaction",[6]; [10],25.3%
same,"relative activity, reduction reaction",[6]; [9],25.3
(R)-2-butanol,"relative activity, oxidation reaction",[1]; NAD+ as coenzyme,49.3
O=S(=O)([O-])[O-].[Mg+2] [MgSO4],Relative activity,[4],125%
O=S(=O)([O-])[O-].[Cu+2] [CuSO4],Residual activity,[2]; [8],100%
B1,"highest specific activity of the purified enzyme, oxidizing (R)-2-octanol",[7],about 91 U/mg-protein
